Test results: patent EP4140481A1, “PROTEIN-OLIGOMER BINDING AGENTS AND THERAPEUTIC USES THEREOF” (Galyan Bio, Inc., priority 2021, dated 2023)
Where two headings read alike, the source gives them in different places.

Assays:
STHdh 7/7 striatal cells = assay: Cell viability after heat shock (CellTiter Glo); format: cell-based; details: Mus musculus, 48 hours treatment, percentage in comparison to pre-heat shock cell viability, read-out: Cell Viability striatal cells 3h heat shocked
Protocol: RESULTS-Table 12bsummarizes the effect of the compounds on cell viability. STHdh 7/7 were heat shocked for 3 hours and treated for 48 hours with small molecule compounds. Table 12b lists the cell viability in striatal cells after 48 hours.
Effect of Compound 22 on Cell Viability of Wildtype Striatal Neurons - STHdh 7/7 cells are striatal cells that express wildtype huntingtin. These cells were cultured in the same conditions as described above for STHdh 111/111. The neurons were first heat shocked for 3 hours at 41 °C as described above. After 48 hours of treatment with the small molecule Compounds, cell viability was determined using the method described above. The "buffer" control is represents cells treated with a buffer only, without any compounds added. Some of the compounds show higher cell viability in comparison to control heat shocked STHdh 7/7 neurons with buffer and no treatment (Figure 5).

zebrafish larvae = assay: Motility Zebrafish Model (MPP+ exposure, photomotor assay and sleep); details: 500 µM MPP+ alone (naïve 40.8)
Protocol: Six groups were included in each experiment. Immediately after spawning, 40 embryos per group were allocated to a 24-well plate and system water (solvent) was added to all wells. […] MPP+ was prepared immediately prior to incubation and solutions were changed daily. At 120 hpf, drug treatment and MPP+ exposure was ceased and a 3X wash was performed with system water. Larvae were then relocated to 96-well plates for behavioral recording and placed in a separate recording room for 24-hour acclimation. Prior to behavioral recording, wells were fully replenished system water.
Naive group was exposed to solvent only. Vehicle group was exposed to solvent and vehicle corresponding to the vehicle of 20 µM drug solution (0.02% DMSO). MPP+ positive control was exposed to solvent and 500 µM MPP+.
Behavioral data was recorded from 1 p.m. on 6 dpf until shortly after wakening on 7 dpf. The recording consisted of a photomotor assay in which lights switch off and on in 30-minute intervals between 1 p.m. and 6 p.m., producing a consistent photomotor response. […] Upon lights being turned on again, the larvae cease movement followed by a return to baseline. This cycle is repeated five times. Following the last lights-off phase, constant illumination is presented until lights turn off at 10 p.m. for the night. Lights turn on again at 8 a.m. the following day.
Average movement frequency was measured during 30-minute lights-on phases of photomotor assay.
Distance moved (mm) was defined as the average distance moved during 30-minute lights-on phases of photomotor assay.
All data are presented as mean ± standard error of the mean (sem). For analysis of differences between groups, a Kruskal-Wallis one-way ANOVA with Dunn's multiple comparison post hoc test was performed. P < 0.05 was considered statistically significant.

mHTT = target: T1, mHTT (Homo sapiens, UniProt P42858); assay: mHTT levels in striatal cells (immunocytochemistry); format: cell-based, mouse; details: STHdh 111/111, 10 µM, 3 hours heat shock, 48 hours treatment, percentage in comparison to untreated STHdh 111/111, 3B5H10 antibody; for remaining activity at 10 µM: read-out: mHTT after treatment
T1 construct: host or cells: ST HDH Q111/111 mouse striatal cell line (knock-in locus)
T1 sequence (P42858 with tags, fused parts or gaps with the stated changes): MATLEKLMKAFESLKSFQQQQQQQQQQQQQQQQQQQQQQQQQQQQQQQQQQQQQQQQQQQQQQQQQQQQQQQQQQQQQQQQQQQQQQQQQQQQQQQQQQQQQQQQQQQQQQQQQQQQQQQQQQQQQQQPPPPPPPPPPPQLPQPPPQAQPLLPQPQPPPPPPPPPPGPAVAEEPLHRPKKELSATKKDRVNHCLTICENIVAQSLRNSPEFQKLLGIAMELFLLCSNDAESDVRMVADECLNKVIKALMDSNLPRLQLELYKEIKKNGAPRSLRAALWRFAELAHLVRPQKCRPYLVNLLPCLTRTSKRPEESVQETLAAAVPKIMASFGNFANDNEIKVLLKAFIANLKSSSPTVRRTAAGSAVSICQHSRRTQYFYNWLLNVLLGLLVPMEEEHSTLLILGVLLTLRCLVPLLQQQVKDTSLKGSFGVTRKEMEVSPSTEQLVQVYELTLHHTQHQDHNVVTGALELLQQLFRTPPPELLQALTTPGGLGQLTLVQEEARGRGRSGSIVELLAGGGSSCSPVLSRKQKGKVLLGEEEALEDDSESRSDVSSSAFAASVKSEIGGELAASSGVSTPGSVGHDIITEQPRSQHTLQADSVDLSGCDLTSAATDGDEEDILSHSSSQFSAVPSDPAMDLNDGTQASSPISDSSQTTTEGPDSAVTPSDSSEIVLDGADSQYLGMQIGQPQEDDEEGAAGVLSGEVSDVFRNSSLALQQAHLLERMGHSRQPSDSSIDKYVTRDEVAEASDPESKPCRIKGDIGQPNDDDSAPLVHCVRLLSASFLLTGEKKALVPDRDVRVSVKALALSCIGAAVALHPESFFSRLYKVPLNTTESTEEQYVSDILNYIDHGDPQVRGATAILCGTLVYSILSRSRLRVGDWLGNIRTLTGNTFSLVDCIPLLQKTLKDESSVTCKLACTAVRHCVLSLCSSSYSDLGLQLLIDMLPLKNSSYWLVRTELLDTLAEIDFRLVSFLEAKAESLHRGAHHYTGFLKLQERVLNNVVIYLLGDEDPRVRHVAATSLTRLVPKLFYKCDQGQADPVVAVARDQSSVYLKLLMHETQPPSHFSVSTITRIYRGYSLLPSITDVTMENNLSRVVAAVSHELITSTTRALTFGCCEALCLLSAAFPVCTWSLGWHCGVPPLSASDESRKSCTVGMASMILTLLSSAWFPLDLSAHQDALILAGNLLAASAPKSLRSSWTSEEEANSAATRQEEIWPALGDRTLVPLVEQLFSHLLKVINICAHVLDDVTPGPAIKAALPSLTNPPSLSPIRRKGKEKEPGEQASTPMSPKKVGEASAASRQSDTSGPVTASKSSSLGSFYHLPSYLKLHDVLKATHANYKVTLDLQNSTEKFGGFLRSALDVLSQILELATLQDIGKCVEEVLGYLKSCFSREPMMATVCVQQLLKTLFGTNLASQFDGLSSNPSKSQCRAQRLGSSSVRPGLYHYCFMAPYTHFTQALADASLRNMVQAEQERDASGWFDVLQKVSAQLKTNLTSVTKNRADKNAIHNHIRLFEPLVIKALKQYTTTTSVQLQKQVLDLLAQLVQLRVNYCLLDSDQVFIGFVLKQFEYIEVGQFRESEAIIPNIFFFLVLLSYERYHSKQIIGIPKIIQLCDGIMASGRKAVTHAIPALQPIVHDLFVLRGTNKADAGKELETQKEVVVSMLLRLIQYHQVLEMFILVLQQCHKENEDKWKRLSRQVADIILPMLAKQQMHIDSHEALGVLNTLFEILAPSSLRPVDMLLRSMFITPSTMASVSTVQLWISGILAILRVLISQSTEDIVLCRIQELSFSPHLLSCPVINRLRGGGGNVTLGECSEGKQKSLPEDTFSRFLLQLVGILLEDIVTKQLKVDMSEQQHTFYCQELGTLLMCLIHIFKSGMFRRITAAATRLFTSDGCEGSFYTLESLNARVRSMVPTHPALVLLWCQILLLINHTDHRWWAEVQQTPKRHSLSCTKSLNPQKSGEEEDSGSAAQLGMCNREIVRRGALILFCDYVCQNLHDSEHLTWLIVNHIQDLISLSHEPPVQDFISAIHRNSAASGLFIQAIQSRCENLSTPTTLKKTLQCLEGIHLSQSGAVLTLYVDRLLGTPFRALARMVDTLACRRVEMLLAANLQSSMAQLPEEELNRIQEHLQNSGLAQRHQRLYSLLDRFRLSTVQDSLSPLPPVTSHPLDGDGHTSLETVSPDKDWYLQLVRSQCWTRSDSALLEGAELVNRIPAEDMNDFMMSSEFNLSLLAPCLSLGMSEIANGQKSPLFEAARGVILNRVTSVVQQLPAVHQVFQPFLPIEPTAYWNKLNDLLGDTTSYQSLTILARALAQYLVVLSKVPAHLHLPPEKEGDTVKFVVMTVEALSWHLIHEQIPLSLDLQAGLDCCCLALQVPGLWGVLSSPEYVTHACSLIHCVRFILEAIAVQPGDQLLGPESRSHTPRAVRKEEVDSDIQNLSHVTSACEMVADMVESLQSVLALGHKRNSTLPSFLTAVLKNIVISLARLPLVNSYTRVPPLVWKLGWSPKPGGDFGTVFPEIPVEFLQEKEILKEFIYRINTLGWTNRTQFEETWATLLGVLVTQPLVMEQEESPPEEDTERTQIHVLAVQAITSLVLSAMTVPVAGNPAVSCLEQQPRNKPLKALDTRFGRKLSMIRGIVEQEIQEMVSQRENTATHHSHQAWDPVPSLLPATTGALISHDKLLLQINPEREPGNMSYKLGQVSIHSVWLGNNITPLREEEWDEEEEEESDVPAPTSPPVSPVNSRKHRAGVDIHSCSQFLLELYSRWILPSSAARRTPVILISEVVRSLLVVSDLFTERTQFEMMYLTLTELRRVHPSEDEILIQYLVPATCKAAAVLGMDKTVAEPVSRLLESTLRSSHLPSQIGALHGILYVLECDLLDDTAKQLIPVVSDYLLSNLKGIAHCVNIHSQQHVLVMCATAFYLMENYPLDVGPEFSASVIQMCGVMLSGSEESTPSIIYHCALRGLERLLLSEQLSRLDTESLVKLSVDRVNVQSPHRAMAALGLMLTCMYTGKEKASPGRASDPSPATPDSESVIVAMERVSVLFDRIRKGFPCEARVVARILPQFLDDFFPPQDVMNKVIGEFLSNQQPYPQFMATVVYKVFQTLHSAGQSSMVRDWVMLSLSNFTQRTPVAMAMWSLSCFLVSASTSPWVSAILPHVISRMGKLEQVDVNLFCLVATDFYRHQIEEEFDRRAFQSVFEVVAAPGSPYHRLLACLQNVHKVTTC
Protocol: (§1) Staining - Cells were permeabilized with 0.3% Triton X-100 in 4 °C PBS (pH 7.4 from ThermoFisher) for 10 minutes. Then the cells were washed two times with 4 °C PBS. Subsequently, cells are blocked with 3% NGS (normal goat serum from Thermo Fisher) in 4 ° C PBS for 1 hour. Cells were incubated with primary antibodies in blocking buffer (PBS, 3% NGS, 0.02% NaN3) over night at 4 °C. Primary antibodies were mouse antipolyglutamine monoclonal antibody 3B5H10 (Sigma-Aldrich) at 1:250 dilution and Guinea Pig anti-MAP2 polyclonal antibody (Synaptic Systems) at 1:500 dilution. 3B5H10 binds to diffuse mHTT. Diffuse mHTT is a monomeric and small oligomeric mHTT. Diffuse mHTT is correlated to pathological parameters in Huntington's disease. Compounds that bind the mHTT will reduce the levels of diffuse mHTT detected.
Cells were washed 2 times with 4 °C PBS, and then incubated with secondary antibodies at 1:2000 dilution in blocking buffer for 1hour at room temperature. […] Cells were washed 2 times with 4 °C PBS, and then the nuclei were counterstain with DAPI (ThermoFisher) for 10 min at room temperature in the dark. Cells were washed 2 times with 4 °C PBS, and then 4 °C PBS was added to cells and then images were acquired. […] Table 11: Antibodies Used in Immunocytochemistry Studies
Fluorescence Imaging - Imaging sessions were performed on a confocal microscope system (Carl Zeiss Microscopy) equipped with a dual spinning disk unit (Yokogawa). All components of the imaging system were controlled via the ZEN 2 software suite (Carl Zeiss Microscopy). The laser lines used were 405 nm, 488 nm and 639 nm to excite DAPI or the respective fluorophores. […] Nested t test was performed to calculate the significance amongst repeated measurements using GraphPad Prism software.
as §1, with “For LC3 staining primary antibodies were mouse anti-LC3 mab (5F10) (nanoTools) at 1:500 dilution” for “3B5H10 binds to diffuse mHTT. Diffuse mHTT is a monomeric”, “Guinea Pig anti-MAP2 polyclonal antibody (Synaptic Systems) at 1:500 dilution.” for “small oligomeric mHTT. Diffuse mHTT is correlated to pathological parameters in Huntington's disease. Compounds that bind the mHTT will reduce the levels of diffuse mHTT detected.”
Cells were washed 2 times with 4 °C PBS, and then incubated with secondary antibodies at 1:2000 dilution in blocking buffer for 1hour at room temperature. […] Cells were washed 2 times with 4 °C PBS, and then the nuclei were counterstain with DAPI (ThermoFisher) for 10 min at room temperature in the dark. Cells were washed 2 times with 4 °C PBS, and then 4 °C PBS was added to cells and then images were acquired.
EC 50 value was determined with non-linear regression.

[1] = test system: STHdh 111/111 striatal cells; assay: Cell viability after heat shock (CellTiter Glo); details: Mus musculus, read-out: Cell Viability striatal cells 3h heat shocked
Protocol: Cell culture - ST HDH Q111/111 (CH00095, Coriell Institute) striatal derived cell line were grown at 33°C in DMEM (Sigma-Aldrich), supplemented with 10% fetal bovine serum (FBS), 1% Penicillin-Streptomycin (ThermoFisher Scientific), and 0.4 mg/ml G418 (Geneticin; Invitrogen). ST HDH Q111/111 are mouse striatal cells with polyQ length of 111.
Pre-Treatment of striatal cell line - First the medium was removed and new DMEM (DMEM, high glucose, HEPES, no phenol red) medium, supplemented with 10% fetal bovine serum (FBS), 1% Penicillin-Streptomycin, containing 10 µM compound was added. The cells were incubated at 33 °C for 24 hours.
Heat shock - Cells were heat shocked for 3 hours at 41 °C.
Treatment - Medium was removed and new DMEM (DMEM, high glucose, HEPES, no phenol red) medium, supplemented with 1% fetal bovine serum (FBS), 1% Penicillin-Streptomycin, containing 10 µM compound was added. The cells were incubated at 33 °C for 48 hours.
Cell Viability - Cell viability was measured according to manufacturer recommendations with CellTiter Glo (Promega).

Mur16 and/or Mur46 = assay: Biacore Surface Plasmon Resonance (SPR) screening, binding to the target structures; details: for Binding properties: third analog screening, binding to the target structure in comparison to parent compound; for Biacore affinity: primary screen, compounds that demonstrated binding to Mur16 and/or Mur46
Protocol: (§2) Exon 1 of the HTT huntingtin (NCBI Gene ID 3064) was expressed as a fusion protein with (i) TRX only (MurTRX); (ii) 16Q (Mur16); and (iii) 46Q (Mur46). MurTRX, Mur16, and Mur46 were produced and purified by HIStag and size exclusion chromatography (SEC). The protocol for MurTRX, Mur16 and Mur46 expression was adopted from Bennett, M.J. et al. Proc. Natl. Acad. Sci. USA 99, 11634-11639. 2002.
Primary Screen - Results - 39 compounds determined from the in-silico screen were tested. Following solvent correction and blank subtraction, double referenced binding levels for samples were plotted against binding levels on both Mur 16 and Mur 46. […] The 4 compounds consistently bind with a higher response on the 16 Q surface than the 46 Q repeat surface, despite the MAb positive control showing the opposite trend.

Mur46 = target: T2, Mur46 (Homo sapiens, UniProt P42858, INS38QQQQQQQQQQQQQQQQQQQQQQQQQ); assay: Biacore SPR, Mur46 coupled flow cell; details: binding to Mur46; 0.1 mM compound concentration
T2 construct: linker […]; made in house; host or cells: E. coli BL21(DE3) plysE, pET28a+
T2 sequence (P42858 with tags, fused parts or gaps with the stated changes limits assumed): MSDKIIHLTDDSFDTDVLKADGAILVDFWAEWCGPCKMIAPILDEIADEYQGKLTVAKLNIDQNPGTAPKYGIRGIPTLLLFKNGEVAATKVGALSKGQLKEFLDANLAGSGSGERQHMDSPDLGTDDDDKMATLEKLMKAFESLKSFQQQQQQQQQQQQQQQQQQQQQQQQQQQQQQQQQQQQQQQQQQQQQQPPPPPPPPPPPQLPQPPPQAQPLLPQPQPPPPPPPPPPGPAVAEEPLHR
From the text: as §2
Biacore Affinity Values for Binding of Compounds to Mur46

## CCN(CC)CCNCc1ccc2[nH]c(C)c(C)c2c1 [Compound 122]
STHdh 7/7 striatal cells
  viability at 10 µM: 91.2%

## C[n+]1ccc(-c2ccccc2)cc1 [MPP+, 1-methyl-4-phenylpyridinium, reference compound]
Zebrafish larvae
  movement frequency: 13.3 movement bouts in 30 minutes

## Cc1[nH]c2ccc(C(=O)N3CCCN(C(C)C)CC3)cc2c1C [Compound 126]
STHdh 7/7 striatal cells
  viability at 10 µM: 42.5%

## COC[C@H](CCNC(=O)c1ccc2[nH]c(C)c(C)c2c1)OC [Compound 120]
STHdh 7/7 striatal cells
  viability at 10 µM: 100%

## Cc1[nH]c2ccc(C(=O)NCCN3CCN(C)CC3)cc2c1C [Compound 24]
mHTT
  remaining activity at 10 µM: 47%
[1]
  viability at 10 µM: 103%

## Cc1[nH]c2ccc(C(=O)N(C)CCN(C)C3CC3)cc2c1C [Compound 114]
Mur16 and/or Mur46
  Binding properties: +/-
Mur46
  Biacore affinity: 20 RU^2

## CCc1[nH]c2ccc(C(=O)NCCN3CCN(C)CC3)cc2c1C [Compound 9]
mHTT
  mHTT after treatment: 37%
[1]; 48 h
  viability at 10 µM: 88%

## Cc1[nH]c2ccc(C(=O)NCC(C)(C)OCC3CC3)cc2c1C [Compound 121]
STHdh 7/7 striatal cells
  viability at 10 µM: 100%

## CCN(CCNC(=O)c1ccc2[nH]ccc2c1)C1CC1 [Compound 123]
STHdh 7/7 striatal cells
  viability at 10 µM: 83.8%

## CCN(CC)C(=O)CNC(=O)c1ccc2[nH]c(C)c(C)c2c1 [Compound 116]
STHdh 7/7 striatal cells
  viability at 10 µM: 118%

## CC(C)N(CCNC(=O)c1ccc2[nH]c3c(c2c1)CCCC3)C(C)C [Compound 57]
Mur16 and/or Mur46
  Binding properties: ++

## O=C(O)C1Cc2c([nH]c3ccccc23)C(c2cccc(Br)c2)N1 (stereo not drawn) [Compound 109]
Mur16 and/or Mur46
  Biacore affinity: 3 RU^2

## Cc1[nH]c2ccc(C(=O)N3CCN(C(C)C)CC3)cc2c1C [Compound 119]
STHdh 7/7 striatal cells
  viability at 10 µM: 101%

## Cc1[nH]c2ccc(C(=O)NCCN3CCOCC3(C)C)cc2c1C [Compound 28]
mHTT
  remaining activity at 10 µM: 51%
STHdh 7/7 striatal cells
  viability at 10 µM: 52.4%
[1]
  viability at 10 µM: 18%

## Cc1[nH]c2ccc(C(=O)N(C)CCN3C[C@@H](C)O[C@@H](C)C3)cc2c1C [Compound 117]
STHdh 7/7 striatal cells
  viability at 10 µM: 118%

## Cc1[nH]c2ccccc2c1[C@]1(O)C(=O)Nc2c(Br)cc(Br)cc21 [Compound 110]
Mur16 and/or Mur46
  Biacore affinity: 80 RU^2

## Cc1[nH]c2ccc(C(=O)N(C)CCNC(=O)C(C)C)cc2c1C [Compound 125]
STHdh 7/7 striatal cells
  viability at 10 µM: 67.9%

## Cc1[nH]c2ccc(C(=O)NCCN(C)C3CCCC3)cc2c1C [Compound 105]
Mur16 and/or Mur46
  Binding properties: ++

## Cc1[nH]c2ccc(C(=O)Nc3ccccc3NC3CCN(C)CC3)cc2c1C [Compound 103]
Mur16 and/or Mur46
  Binding properties: ++

## Cc1c(C)n(C)c2ccc(C(=O)NCCN(C(C)C)C(C)C)cc12 [Compound 39]
STHdh 7/7 striatal cells
  viability at 10 µM: 154%
[1]; 48 h
  viability at 10 µM: 117%

## Cc1[nH]c2ccc(C(=O)NCC(=O)NC(C)C)cc2c1C [Compound 113]
Mur16 and/or Mur46
  Biacore affinity: 160 RU^2

## Cc1c(C)n(Cc2ccccc2)c2ccc(C(=O)NCCN(C)C)cc12 [Compound 118]
STHdh 7/7 striatal cells
  viability at 10 µM: 110%

## CC(C)N(CCNC(=O)c1ccc2[nH]c3c(c2c1)CCCC3)C(C)C [Compound 34]
mHTT
  mHTT after treatment: 56%
[1]; 48 h
  viability at 10 µM: 60%

## Cc1[nH]c2ccc(C(=O)NCCN(C)C3CCCC3)cc2c1C [Compound 55]
mHTT
  mHTT after treatment: 91%
[1]; 48 h
  viability at 10 µM: 67%

## CO[C@@H](CNC(=O)c1ccc2[nH]c(C)c(C)c2c1)C(C)C [Compound 124]
STHdh 7/7 striatal cells
  viability at 10 µM: 76.2%

## CON1CCC(NC(=O)c2ccc3[nH]c(C)c(C)c3c2)CC1 [Compound 115]
STHdh 7/7 striatal cells
  viability at 10 µM: 136%

## Cc1[nH]c2ccc(C(=O)NCCNC(C)(C)C)cc2c1C [Compound 50]
mHTT
  remaining activity at 10 µM: 72%
STHdh 7/7 striatal cells
  viability at 10 µM: 40.9%
[1]
  viability at 10 µM: 67%

## O=C(NCCN1CCCCC1)c1ccc2[nH]c3c(c2c1)CCC3 [Compound 35]
mHTT
  remaining activity at 10 µM: 56%
[1]
  viability at 10 µM: 103%
